{"source": "patent US20230143604A1", "about": "“QW DOSING OF GIP RECEPTOR AGONIST PEPTIDE COMPOUNDS AND USES THEREOF” (TAKEDA PHARMACEUTICAL COMPANY LIMITED, priority 2020, published 2023)", "experiment": "Solubility in phosphate buffer pH 7.4", "procedure,_shortened": "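3 mg of peptide treated with 100 μL portions of 200 mM phosphate buffer pH 7.4, sonicating/vortexing up to 1 min, with further buffer added until fully dissolved. Solubility then quantified by HPLC.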", "key": {"[1]": {"conditions": "pH 7.4, aqueous buffer, pH 7.4 Phosphate Buffer - Solubility, 200 mM Phosphate buffer pH 7.4"}, "[2]": {"conditions": "pH 7.4, solubility in phosphate buffer at pH 7.4, 200 mM phosphate buffer pH 7.4"}}, "note": "Starred links: 1 amine or outer side, 2 acyl side, 3 side chain; linkers in the order of their positions; H or OH if unused. Non-standard residues stand in square brackets, D forms with d. Residues, ends and D or L forms follow the SMILES beside them. Groups on a side chain read outwards from the residue. *: point of attachment. C18 diacid = O=C(O)CCCCCCCCCCCCCCCCC(=O)*; C17 diacid = O=C(O)CCCCCCCCCCCCCCCC(=O)*; γGlu = O=C(O)[C@H](CCC(=O)[*:2])N[*:1]; NMeY = CN[C@@H](Cc1ccc(O)cc1)C(=O)O; AEEA = NCCOCCOCC(=O)O; Aib = CC(C)(N)C(=O)O"}
{"smiles": "CC[C@H](C)[C@H](NC(=O)[C@H](CO)NC(=O)[C@H](Cc1ccc(O)cc1)NC(=O)[C@H](CC(=O)O)NC(=O)[C@H](CO)NC(=O)[C@@H](NC(=O)[C@H](Cc1ccccc1)NC(=O)[C@@H](NC(=O)CNC(=O)[C@H](CCC(=O)O)NC(=O)C(C)(C)NC(=O)[C@H](Cc1ccc(O)cc1)NC)[C@@H](C)O)[C@@H](C)CC)C(=O)N[C@@H](C)C(=O)N[C@@H](CCCCNC(=O)CC[C@H](NC(=O)CC[C@H](NC(=O)CC[C@H](NC(=O)CCCCCCCCCCCCCCCC(=O)O)C(=O)O)C(=O)O)C(=O)O)C(=O)N[C@@H](CC(=O)O)C(=O)N[C@@H](CCCNC(=N)N)C(=O)NC(C)(C)C(=O)N[C@@H](C)C(=O)N[C@@H](CCC(N)=O)C(=O)NC(C)(C)C(=O)N[C@@H](CC(N)=O)C(=O)N[C@@H](Cc1ccccc1)C(=O)N[C@H](C(=O)N[C@@H](CC(N)=O)C(=O)N[C@@H](Cc1c[nH]c2ccccc12)C(=O)N[C@@H](CC(C)C)C(=O)N[C@@H](CC(C)C)C(=O)N[C@@H](C)C(=O)N[C@@H](CCC(N)=O)C(=O)N[C@@H](CO)C(=O)N1CCC[C@H]1C(=O)N[C@@H](CO)C(=O)N[C@@H](CO)C(=O)NCC(=O)N[C@@H](C)C(=O)N1CCC[C@H]1C(=O)N1CCC[C@H]1C(=O)N1CCC[C@H]1C(=O)N[C@@H](CO)C(N)=O)C(C)C", "note": "[Compound 12] (H-[NMeY][Aib]EGTFISDYSIAK([γGlu-γGlu-γGlu-C17 diacid])DR[Aib]AQ[Aib]NFVNWLLAQSPSSGAPPPS-NH2)", "values": [{"measurement": "solubility", "setting": "[1]", "result": "≥ 30", "unit": "mg/mL"}, {"measurement": "solubility", "setting": "[2]", "result": "≥ 15", "unit": "mg/mL"}]}
{"smiles": "CC[C@H](C)[C@H](NC(=O)[C@H](CO)NC(=O)[C@H](Cc1ccc(O)cc1)NC(=O)[C@H](CC(=O)O)NC(=O)[C@H](CO)NC(=O)[C@@H](NC(=O)[C@H](Cc1ccccc1)NC(=O)[C@@H](NC(=O)CNC(=O)[C@H](CCC(=O)O)NC(=O)C(C)(C)NC(=O)[C@@H](N)Cc1ccc(O)cc1)[C@@H](C)O)[C@@H](C)CC)C(=O)N[C@@H](C)C(=O)N[C@@H](CC(C)C)C(=O)N[C@@H](CC(=O)O)C(=O)N[C@@H](CCCCN)C(=O)N[C@@H](C)C(=O)N[C@@H](C)C(=O)N[C@@H](CCC(N)=O)C(=O)NC(C)(C)C(=O)N[C@@H](CCCCNC(=O)COCCOCCNC(=O)COCCOCCNC(=O)CC[C@H](NC(=O)CC[C@H](NC(=O)CCCCCCCCCCCCCCCC(=O)O)C(=O)O)C(=O)O)C(=O)N[C@@H](Cc1ccccc1)C(=O)N[C@H](C(=O)N[C@@H](CCC(=O)O)C(=O)N[C@@H](Cc1c[nH]c2ccccc12)C(=O)N[C@@H](CC(C)C)C(=O)N[C@@H](CC(C)C)C(=O)N[C@@H](C)C(=O)N[C@@H](CCC(N)=O)C(=O)N[C@@H](CCCNC(=N)N)C(=O)NCC(=O)O)C(C)C", "note": "[Compound 133] (H-Y[Aib]EGTFISDYSIALDKAAQ[Aib]K([AEEA-AEEA-γGlu-γGlu-C17 diacid])FVEWLLAQRG-OH)", "values": [{"measurement": "solubility", "setting": "pH 7.4", "result": "≥ 15", "unit": "mg/mL"}, {"measurement": "solubility", "setting": "pH 7.4, aqueous buffer", "result": "≥ 30", "unit": "mg/mL"}]}
{"smiles": "CC[C@H](C)[C@H](NC(=O)[C@H](CCCNC(=N)N)NC(=O)[C@H](CC(=O)O)NC(=O)[C@H](CCCCNC(=O)CNC(=O)CNC(=O)CNC(=O)CNC(=O)CNC(=O)CCCCCCCCCCCCCCCCC(=O)O)NC(=O)[C@H](C)NC(=O)[C@@H](NC(=O)[C@H](CO)NC(=O)[C@H](Cc1ccc(O)cc1)NC(=O)[C@H](CC(=O)O)NC(=O)[C@H](CO)NC(=O)[C@@H](NC(=O)[C@H](Cc1ccccc1)NC(=O)[C@@H](NC(=O)CNC(=O)[C@H](CCC(=O)O)NC(=O)C(C)(C)NC(=O)[C@H](Cc1ccc(O)cc1)NC)[C@@H](C)O)[C@@H](C)CC)[C@@H](C)CC)C(=O)N[C@@H](C)C(=O)N[C@@H](CCC(N)=O)C(=O)N[C@@H](CCC(N)=O)C(=O)N[C@@H](CC(=O)O)C(=O)N[C@@H](Cc1ccccc1)C(=O)N[C@H](C(=O)N[C@@H](CC(N)=O)C(=O)N[C@@H](Cc1c[nH]c2ccccc12)C(=O)N[C@@H](CC(C)C)C(=O)N[C@@H](CC(C)C)C(=O)N[C@@H](C)C(=O)N[C@@H](CCC(N)=O)C(=O)N[C@@H](CCCNC(=N)N)C(=O)N1CCC[C@H]1C(=O)N[C@@H](CO)C(=O)N[C@@H](CO)C(=O)NCC(=O)O)C(C)C", "note": "[Compound 285]", "values": [{"measurement": "solubility", "setting": "pH 7.4, aqueous buffer", "result": "< 6", "unit": "mg/mL"}]}
{"smiles": "CC[C@H](C)[C@H](NC(=O)[C@H](CO)NC(=O)[C@H](Cc1ccc(O)cc1)NC(=O)[C@H](CC(=O)O)NC(=O)[C@H](CO)NC(=O)[C@@H](NC(=O)[C@H](Cc1ccccc1)NC(=O)[C@@H](NC(=O)CNC(=O)[C@H](CCC(=O)O)NC(=O)C(C)(C)NC(=O)[C@@H](N)Cc1ccc(O)cc1)[C@@H](C)O)[C@@H](C)CC)C(=O)N[C@@H](C)C(=O)NC(C)(C)C(=O)N[C@@H](CC(=O)O)C(=O)N[C@@H](CCCCN)C(=O)N[C@H](C(=O)N[C@@H](CCCCNC(=O)COCCOCCNC(=O)COCCOCCNC(=O)CC[C@H](NC(=O)CCCCCCCCCCCCCCCCC(=O)O)C(=O)O)C(=O)N[C@@H](CCC(N)=O)C(=O)N[C@@H](C)C(=O)N[C@@H](CC(=O)O)C(=O)N[C@@H](Cc1ccccc1)C(=O)N[C@H](C(=O)N[C@@H](CCC(=O)O)C(=O)N[C@@H](Cc1c[nH]c2ccccc12)C(=O)N[C@@H](CC(C)C)C(=O)N[C@@H](CC(C)C)C(=O)N[C@@H](C)C(=O)N[C@@H](CCC(N)=O)C(=O)N[C@@H](CCCNC(=N)N)C(=O)NCC(=O)O)C(C)C)[C@@H](C)CC", "note": "[Compound 166] (H-Y[Aib]EGTFISDYSIA[Aib]DKIK([AEEA-AEEA-γGlu-C18 diacid])QADFVEWLLAQRG-OH)", "values": [{"measurement": "solubility", "setting": "pH 7.4", "result": "≥ 15", "unit": "mg/mL"}, {"measurement": "solubility", "setting": "pH 7.4, aqueous buffer", "result": "≥ 30", "unit": "mg/mL"}]}
{"smiles": "CC[C@H](C)[C@H](NC(=O)[C@H](Cc1ccccc1)NC(=O)[C@@H](NC(=O)CNC(=O)[C@H](CCC(=O)O)NC(=O)C(C)(C)NC(=O)[C@H](Cc1ccc(O)cc1)NC)[C@@H](C)O)C(=O)N[C@@H](CO)C(=O)N[C@@H](CC(=O)O)C(=O)N[C@@H](Cc1ccc(O)cc1)C(=O)N[C@@H](CO)C(=O)N[C@H](C(=O)NC(C)(C)C(=O)N[C@@H](CCCCNC(=O)COCCOCCNC(=O)COCCOCCNC(=O)CC[C@H](NC(=O)CC[C@H](NC(=O)CCCCCCCCCCCCCCCC(=O)O)C(=O)O)C(=O)O)C(=O)N[C@@H](CC(=O)O)C(=O)N[C@@H](CCCNC(=N)N)C(=O)NC(C)(C)C(=O)N[C@@H](C)C(=O)N[C@@H](CCC(N)=O)C(=O)NC(C)(C)C(=O)N[C@@H](CC(N)=O)C(=O)N[C@@H](Cc1ccccc1)C(=O)N[C@H](C(=O)N[C@@H](CC(N)=O)C(=O)N[C@@H](Cc1c[nH]c2ccccc12)C(=O)N[C@@H](CC(C)C)C(=O)N[C@@H](CC(C)C)C(=O)N[C@@H](C)C(=O)N[C@@H](CCC(N)=O)C(=O)N[C@@H](CO)C(=O)N1CCC[C@H]1C(=O)N[C@@H](CO)C(=O)N[C@@H](CO)C(=O)NCC(=O)N[C@@H](C)C(=O)N1CCC[C@H]1C(=O)N1CCC[C@H]1C(=O)N1CCC[C@H]1C(=O)N[C@@H](CO)C(N)=O)C(C)C)[C@@H](C)CC", "note": "[Compound 29] (H-[NMeY][Aib]EGTFISDYSI[Aib]K([AEEA-AEEA-γGlu-γGlu-C17 diacid])DR[Aib]AQ[Aib]NFVNWLLAQSPSSGAPPPS-NH2)", "values": [{"measurement": "solubility", "setting": "[1]", "result": "≥ 30", "unit": "mg/mL"}, {"measurement": "solubility", "setting": "[2]", "result": "≥ 15", "unit": "mg/mL"}]}
{"smiles": "CC[C@H](C)[C@H](NC(=O)[C@H](CO)NC(=O)[C@H](Cc1ccc(O)cc1)NC(=O)[C@H](CC(=O)O)NC(=O)[C@H](CO)NC(=O)[C@@H](NC(=O)[C@H](Cc1ccccc1)NC(=O)[C@@H](NC(=O)CNC(=O)[C@H](CCC(=O)O)NC(=O)C(C)(C)NC(=O)[C@H](Cc1ccc(O)cc1)NC)[C@@H](C)O)[C@@H](C)CC)C(=O)N[C@@H](C)C(=O)N[C@@H](CC(C)C)C(=O)N[C@@H](CC(=O)O)C(=O)N[C@@H](CCCNC(=N)N)C(=O)N[C@@H](C)C(=O)N[C@@H](C)C(=O)N[C@@H](CCC(N)=O)C(=O)N[C@@H](CCC(N)=O)C(=O)N[C@@H](CCCCNC(=O)COCCOCCNC(=O)COCCOCCNC(=O)CC[C@H](NC(=O)CC[C@H](NC(=O)CCCCCCCCCCCCCCCCC(=O)O)C(=O)O)C(=O)O)C(=O)N[C@@H](Cc1ccccc1)C(=O)N[C@H](C(=O)N[C@@H](CC(N)=O)C(=O)N[C@@H](Cc1c[nH]c2ccccc12)C(=O)N[C@@H](CC(C)C)C(=O)N[C@@H](CC(C)C)C(=O)N[C@@H](C)C(=O)N[C@@H](CCC(N)=O)C(=O)N[C@@H](CO)C(=O)N1CCC[C@H]1C(=O)NCC(=O)O)C(C)C", "note": "[Compound 178] (H-[NMeY][Aib]EGTFISDYSIALDRAAQQK([AEEA-AEEA-γGlu-γGlu-C18 diacid])FVNWLLAQSPG-OH)", "values": [{"measurement": "solubility", "setting": "pH 7.4", "result": "≥ 15", "unit": "mg/mL"}, {"measurement": "solubility", "setting": "pH 7.4, aqueous buffer", "result": "≥ 30", "unit": "mg/mL"}]}
{"smiles": "CC[C@H](C)[C@H](NC(=O)[C@H](CO)NC(=O)[C@H](Cc1ccc(O)cc1)NC(=O)[C@H](CC(=O)O)NC(=O)[C@H](CO)NC(=O)[C@@H](NC(=O)[C@H](Cc1ccccc1)NC(=O)[C@@H](NC(=O)CNC(=O)[C@H](CCC(=O)O)NC(=O)C(C)(C)NC(=O)[C@H](Cc1ccc(O)cc1)NC(C)=O)[C@@H](C)O)[C@@H](C)CC)C(=O)N[C@@H](C)C(=O)N[C@@H](CC(C)C)C(=O)N[C@@H](CC(=O)O)C(=O)N[C@@H](CCCNC(=N)N)C(=O)N[C@H](C(=O)N[C@@H](Cc1c[nH]cn1)C(=O)N[C@@H](CCC(N)=O)C(=O)N[C@@H](CCC(N)=O)C(=O)N[C@@H](CC(N)=O)C(=O)N[C@@H](Cc1ccccc1)C(=O)N[C@H](C(=O)N[C@@H](CC(N)=O)C(=O)N[C@@H](Cc1c[nH]c2ccccc12)C(=O)N[C@@H](CC(C)C)C(=O)N[C@@H](CC(C)C)C(=O)N[C@@H](C)C(=O)N[C@@H](CCC(N)=O)C(=O)N[C@@H](CCCCNC(=O)COCCOCCNC(=O)COCCOCCNC(=O)CC[C@H](NC(=O)CCCCCCCCCCCCCCCCC(=O)O)C(=O)O)C(=O)O)C(C)C)[C@@H](C)CC", "note": "[Compound 244] (Ac-Y[Aib]EGTFISDYSIALDRIHQQNFVNWLLAQK([AEEA-AEEA-γGlu-C18 diacid])-OH; C-terminus assumed)", "values": [{"measurement": "solubility", "setting": "pH 7.4, aqueous buffer", "result": "≥ 9.4", "unit": "mg/mL"}]}
